Experimental data as given in US12569453B2, “Use of tapinarof for the treatment of atopic dermatitis” (Dermavant Sciences GmbH, priority 2018, dated 2026).

Columns and labels:
[1] = Phase II psoriasis study: plasma PK samples; assay type: in vivo, human; details: of 860 samples from patients receiving an active dose
Method: Pharmacokinetics: Sparse PK sampling throughout the duration of the study was intended to be used to develop a population PK model and to estimate population PK parameters (i.e., apparent clearance [CL/F], apparent volume of distribution [V/F]) of systemic exposure, according to the Time and Events Table. Plasma analysis was performed under the management of Bioanalysis, Immunogenicity & Biomarkers, IVIVT, PTS, GSK.
The bioanalytical method used to support the study was a fully validated Liquid Chromatography-Tandem Mass Spectrometry (LC-MS/MS) method in accordance with FDA/EU/MHLW guidelines [US Department of Health and Human Services, Food and Drug Administration Draft Guidance for Industry: Bioanalytical Method Validation, 2013] [European Medicines Agency Guideline on Bioanalytical Method Validation, 2011] [Japanese Ministry of Health Guideline on Bioanalytical Method Validation in Pharmaceutical Development, 2013].

[2] = Phase II AD study: plasma PK samples; assay type: in vivo, human; details: for concentration at 1 week: Week 1; for concentration at 2 week: Week 2; for concentration at 4 week: Week 4; for concentration at 8 week: Week 8
Method: Pharmacokinetics: A total of 5 blood samples for PK analysis of GSK2894512 were collected from each subject over the clinic visits at Weeks 1, 2, 4, 8, and 12. Plasma analysis was performed under the management of Bioanalytical Science and Toxicokinetics, DMPK, GSK.
Pharmacokinetics: Subjects with atopic dermatitis, BSA involvement >5% and <35%, excluding scalp, and Baseline IGA score of >3 at Baseline, participated in this study in which 2 concentrations of Tapinarof cream (0.5% and 1%) and a vehicle control were evaluated following application to all AD lesions (except on the scalp) once or twice daily for 12 weeks.
A total of 5 blood samples for PK analysis of Tapinarof were collected from each subject at the following clinic visits: Weeks 1, 2, 4, 8, and 12. Subjects were advised to provide PK samples during each of the following 3 time windows: 1 to 3 hours post application, 3 to 6 hours post application, and 6 to 12 hours post application.

[3] = human, plasma, topical, 0.5 % cream BID, Subject 111301, 0.5% BID
[4] = human, plasma, topical, 0.5 % cream BID, Subject 316851, 0.5% BID
[5] = human, plasma, topical, 1 % cream BID, Subject 110406, 1% BID
[6] = human, plasma, topical, 1 % cream BID, Subject 110604, 1% BID

SMILES: CC(C)c1c(O)cc(/C=C/c2ccccc2)cc1O [Tapinarof, 3,5-Dihydroxy-4-isopropyl-trans-stilbene]
- plasma samples below the Lower Limit of Quantitation (LLQ) [1]: 649 samples
- plasma samples quantified [1]: 157 samples
- subjects with plasma concentration >0.84 ng/mL (minipig NOAEL Cmax) ([2]; 0.5% BID): 4 subjects
- subjects with plasma concentration >0.84 ng/mL (minipig NOAEL Cmax) ([2]; 0.5% QD): 2 subjects
- subjects with plasma concentration >0.84 ng/mL (minipig NOAEL Cmax) ([2]; 1% BID): 5 subjects
- subjects with plasma concentration >0.84 ng/mL (minipig NOAEL Cmax) ([2]; 1% QD): 2 subjects
- subjects with plasma concentration >0.84 ng/mL (minipig NOAEL Cmax) ([2]; all Tapinarof groups, out of 247): 13 subjects
- concentration at 1 week [2, 3]: 6.09 ng/mL
- concentration at 2 week [2, 3]: 0.438 ng/mL
- concentration at 4 week [2, 3]: 0.649 ng/mL
- concentration at 1 week [2, 4]: 0.362 ng/mL
- concentration at 2 week [2, 4]: 0.106 ng/mL
- concentration at 8 week [2, 4]: 1.93 ng/mL
- concentration at 1 week [2, 5]: 0.233 ng/mL
- concentration at 2 week [2, 5]: 0.347 ng/mL
- concentration at 4 week [2, 5]: 4.9 ng/mL
- concentration at 8 week [2, 5]: 0.514 ng/mL
- concentration at 1 week [2, 6]: 1.48 ng/mL
- concentration at 2 week [2, 6]: 0.266 ng/mL
- concentration at 4 week [2, 6]: 0.43 ng/mL
- concentration at 8 week [2, 6]: 0.0716 ng/mL
- concentration at 12 week ([2]; human, plasma, topical, 1 % cream BID, Subject 110604, 1% BID, Week 12): 0.311 ng/mL
- concentration at 2 week ([2]; human, plasma, topical, 1 % cream BID, Subject 316651, 1% BID): 181 ng/mL
- quantifiable plasma samples ([2]; of 753 samples from subjects on active treatment, LLOQ 0.04 ng/mL): 348
